This note sets out measurements from patent US20140256756A1, “PIPERIDINYL-SUBSTITUTED LACTAMS AS GPR119 MODULATORS” (Array BioPharma Inc., priority 2011, published 2014).

This assay relates to modified version of the GPR119 receptor (94% identity to human receptor). The experiment in a line: cAMP production assay (LANCE cAMP kit, TR-FRET) in HEK-293 cells. The assay is classed as cell-based. Conditions: for cAMP production in HEK-293 cells: HEK-293 cells stably expressing modified GPR119, test compounds 0.2 nM to 10 μM, one-hour incubation; for Fold over baseline: increase in cAMP relative to basal levels, agonist activity if 1.5-fold or greater. The gist of the method: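 Agonist activity meant a 1.5-fold or greater cAMP rise over basal, with levels interpolated from a standard curve after TR-FRET competition read-out. HEK-293 cells with tetracycline-inducible modified GPR119 (1 μg/mL doxycycline overnight) were incubated one hour at ambient temperature with 0.2 nM to 10 μM compound, 0.5% DMSO.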

Take `CC(C)c1nsc(N2CCC(N3CCCC(Oc4cc(F)c(S(C)(=O)=O)cc4F)C3=O)CC2)n1` (stereo not shown) [Example 85, 3-(2,5-Difluoro-4-(methylsulfonyl)phenoxy)-1′-(3-isopropyl-1,2,4-thiadiazol-5-yl)-[1,4′-bipiperidin]-2-one]: the “cAMP production in HEK-293 cells” value was 16.2 nmol and the Fold over baseline amounted to 3.8.
On to `CS(=O)(=O)c1ccc(O[C@H]2CCN(C3CCN(c4nc(C(F)(F)F)ns4)CC3)C2=O)c(F)c1` [Example 86, (S)-3-(2-Fluoro-4-(methylsulfonyl)phenoxy)-1-(1-(3-(trifluoromethyl)-1,2,4-thiadiazol-5-yl)piperidin-4-yl)pyrrolidin-2-one], for which the “cAMP production in HEK-293 cells” value was determined as 11.1 nmol and the Fold over baseline was found to be 3.4.
For `CS(=O)(=O)c1ccc(N[C@H]2CCCN(C3CCN(c4nc(C(F)(F)F)ns4)CC3)C2=O)c(F)c1` [Example 87, (S)-3-(2-fluoro-4-(methylsulfonyl)phenylamino)-1′-(3-(trifluoromethyl)-1,2,4-thiadiazol-5-yl)-[1,4′-bipiperidin]-2-one], in that order: 13.6 nmol and 2.1.
For the molecule `CS(=O)(=O)c1cc(F)c(N[C@H]2CCN(C3CCN(c4nc(C(F)(F)F)ns4)CC3)C2=O)c(F)c1` [Example 88, (S)-3-(2,6-difluoro-4-(methylsulfonyl)phenylamino)-1-(1-(3-(trifluoromethyl)-1,2,4-thiadiazol-5-yl)piperidin-4-yl)pyrrolidin-2-one], the “cAMP production in HEK-293 cells” value was 11.8 nmol and the Fold over baseline was found to be 3.0.
On to `CS(=O)(=O)c1cc(F)c(N[C@H]2CCN(C3CCN(c4nc(C(F)(F)F)ns4)CC3)C2=O)cc1F` [Example 89, (S)-3-(2,5-difluoro-4-(methylsulfonyl)phenylamino)-1-(1-(3-(trifluoromethyl)-1,2,4-thiadiazol-5-yl)piperidin-4-yl)pyrrolidin-2-one], for which the “cAMP production in HEK-293 cells” value is 15.1 nmol and the Fold over baseline amounted to 3.8.
On the same counts, the results for `CS(=O)(=O)c1ccc(N[C@H]2CCN(C3CCN(c4nc(C(F)(F)F)ns4)CC3)C2=O)c(F)c1` [Example 90, (S)-3-(2-fluoro-4-(methylsulfonyl)phenylamino)-1-(1-(3-(trifluoromethyl)-1,2,4-thiadiazol-5-yl)piperidin-4-yl)pyrrolidin-2-one] are 8.5 nmol and 2.9.
`CS(=O)(=O)c1cc(F)c(O[C@H]2CCN(C3CCN(c4nc(C(F)(F)F)ns4)CC3)C2=O)cc1F` [Example 91, (S)-3-(2,5-difluoro-4-(methylsulfonyl)phenoxy)-1-(1-(3-(trifluoromethyl)-1,2,4-thiadiazol-5-yl)piperidin-4-yl)pyrrolidin-2-one]: the “cAMP production in HEK-293 cells” value turned out to be 25.6 nmol and the Fold over baseline turned out to be 5.4.
With `CC(C)c1nsc(N2CCC(N3CCC(Cc4ccc(S(C)(=O)=O)cc4)C3=O)CC2)n1` (stereo not shown) [Example 92, 1-(1-(3-isopropyl-1,2,4-thiadiazol-5-yl)piperidin-4-yl)-3-(4-(methylsulfonyl)benzyl)pyrrolidin-2-one], the “cAMP production in HEK-293 cells” value stood at 18.4 nmol and the Fold over baseline amounted to 2.8.
For `CS(=O)(=O)c1cc(F)c(O[C@H]2CCCN(C3CCN(c4nc(C(F)(F)F)ns4)CC3)C2=O)cc1F` [Example 93, (S)-3-(2,5-difluoro-4-(methylsulfonyl)phenoxy)-1′-(3-(trifluoromethyl)-1,2,4-thiadiazol-5-yl)-[1,4′-bipiperidin]-2-one], in that order: 9.0 nmol and 2.9.
For `CC(C)c1nsc(N2CCC(N3CC[C@H](Oc4ccc(S(C)(=O)=O)nc4)C3=O)CC2)n1` [Example 94, (S)-1-(1-(3-isopropyl-1,2,4-thiadiazol-5-yl)piperidin-4-yl)-3-((6-(methylsulfonyl)pyridin-3-yl)oxy)pyrrolidin-2-one], in that order: 28.1 nmol and 4.0.
For `CC(C)(C)n1nnc(N2CCC(N3CC[C@H](Oc4ccc(S(C)(=O)=O)cc4F)C3=O)CC2)n1` [Example 95, (S)-1-(1-(2-(tert-butyl)2H-tetrazol-5-yl)piperidin-4-yl)-3-(2-fluoro-4-(methylsulfonyl)phenoxy)pyrrolidin-2-one], in that order: 16.7 nmol and 3.4.
`CS(=O)(=O)c1cc(F)c(O[C@H]2CCN(C3CCN(c4nnc(C(F)(F)F)s4)CC3)C2=O)cc1F` [Example 96, (S)-3-(2,5-difluoro-4-(methylsulfonyl)phenoxy)-1-(1-(5-(trifluoromethyl)-1,3,4-thiadiazol-2-yl)piperidin-4-yl)pyrrolidin-2-one]: the “cAMP production in HEK-293 cells” value came out at 14.2 nmol and the Fold over baseline is recorded as 3.1.
Turning to `CS(=O)(=O)c1cc(F)c(O[C@H]2CCN(C3CCN(c4cnc(C(F)(F)F)o4)CC3)C2=O)cc1F` [Example 97, (S)-3-(2,5-difluoro-4-(methylsulfonyl)phenoxy)-1-(1-(2-(trifluoromethyl)oxazol-5-yl)piperidin-4-yl)pyrrolidin-2-one], the “cAMP production in HEK-293 cells” value was determined as 19.0 nmol and the Fold over baseline turned out to be 4.1.
On the same counts, the results for `CS(=O)(=O)c1cc(F)c(O[C@H]2CCN(C3CCN(c4cnc(C(F)(F)F)s4)CC3)C2=O)cc1F` [Example 98, (S)-3-(2,5-difluoro-4-(methylsulfonyl)phenoxy)-1-(1-(2-(trifluoromethyl)thiazol-5-yl)piperidin-4-yl)pyrrolidin-2-one] are 23.7 nmol and 5.4.
